The text below walks through data of US20130005759A1, “SMALL MOLECULE MODIFIERS OF MICRORNA MIR-122” (North Carolina State University, priority 2010, published 2013).

In one series the test system is miR-122. In words: psiCHECK-miR122 dual luciferase reporter assay in Huh7 cells. Type of series: cell-based, human. To be noted: for miR-122 inhibitory activity (structure-activity, in words) / miR-122 activation (structure-activity, in words): Huh7, 10 μM; for miR-122 inhibitory activity (structure-activity, in words): relative to parent inhibitor 1 or 2; for miR-122 activation (structure-activity, in words): relative to parent activator 3. The source says: A miRNA small molecule modifier screen for miR-122 was developed based on the psiCHECK-2 (Promega) reporter plasmid (FIG. 9). This construct expresses both Renilla luciferase as well as firefly luciferase, allowing for the normalization of the signal to account for differential cellular viability and variability in transfection efficiency. The miR-122 target sequence was inserted downstream of the Renilla luciferase gene, between the PmeI and SgfI restriction sites. In another aspect of the invention, plasmids expressing luciferase or another reporter gene such as for example, fluorescent reporters (GFP and variants thereof, DsRed, etc.) or beta-galactosidase can be used to screen for small molecule modifiers of miR-122. The mi-122 target sequence may be upstream or downstream of the reporter gene. Multiple miR-122 target sites can also be inserted into or be present in the plasmid.
The presence of mature miR-122 will lead to a decrease in the Renilla luciferase signal (FIG. 1a). The ability to detect endogenous miR-122 was validated by transfecting the generated psiCHECK-miR122 construct into Huh7 and HeLa cells. After 48 hour incubation, the cells were assayed using a Dual Luciferase Assay Kit (Promega). In another embodiment, the cells can be incubated for about 24-96 hours. The Dual Luciferase Assay Kit provides a means to measure the amount of the luciferases by generating a luminescent signal. Using this assay the luminescence from the firefly luciferase reaction may be quenched while the luminescent reaction of Renilla luciferase can be activated. Other assays and procedures that can determine the amount of the one or more reporter genes or miR-122 expression, activity or function can be used. An example of another assay is Dual-Glo Assay (Promega).
The psiCHECK-miR122 vector was then employed in a small molecule screen in Huh7 cells to discover modifiers of miR-122 function. Other cells that express miR-122 such as HepG2 and Hep3B can be used in addition to or instead of Huh7 cells. An increase in the relative Renilla luciferase signal indicates a miR-122 inhibitor, while a reduction in the luciferase signal indicates a miR-122 activator. A genus of compounds that may have activity as modifiers of miR122 function are the Diversity Set II (1364 compounds) from the NCI Developmental Therapeutics Program was screened using Huh7 cells containing the psiCHECK-miR122 reporter. Cells were exposed to the small molecules and the relative luciferase signal was measured after 48 hours using a Dual Luciferase Assay Kit (Promega). In another embodiment the cells can be exposed to the small molecules for about 24-96 hours. As explained above, other assays and procedures that can determine the amount of the one or more reporter genes or miR-122 expression, activity or function can be used.
The analogs were screened for activity using the previously described miR-122 assay. All cells were treated with 10 μM of a compound and experiments were performed in triplicate to ensure statistical validity. The data was normalized to a 1% DMSO control and is reported in relative luciferase units (RLU). The standard deviation was calculated from three independent assays. Some analogs of miR-122 inhibitor compound 1 are:
Huh7 and HeLa cells were transfected at approximately 60% confluency with either the psiCHECK-Control plasmid (the original psiCHECK-2 plasmid containing no known miRNA binding site) or the psiCHECK-miR122 plasmid (0.5 μg) using X-tremGENE transfection reagent (3:2 reagent/DNA ratio; Roche) in Opti-Mem media (Invitrogen). All transfections were performed in triplicate for statistical analysis. The cells were incubated at 37° C. for 4 hours followed by the replacement of transfection media with standard DMEM growth media. After 48 hours of incubation the media was removed, cells were lysed and assayed with a Dual Luciferase Assay Kit (Promega) using a Wallac VICTOR^3V luminometer with a measurement time of 1 s and a delay time of 2 s. […]
A general note: A reporter such as luciferase makes a cellular process visible.

In series [1] the test system is psiCHECK-control vector (no miRNA target sequence). In words: psiCHECK-control vector luciferase counter-assay in Huh7 cells. To be noted: Huh7, 10 μM. In kind it is cell-based, human. The source says:
(FIG. 3). […] The relative luciferase units were normalized to the corresponding DMSO signals. […] This confirms that compound 2 and the antagomir have similar effects on the reduction of miR-122 function in Huh7 cells.
Compounds which elicited greater than a 5-fold increase of the relative luciferase units signal compared to the DMSO control were then re-assayed in triplicate to confirm the validity of the hit compound. Upon secondary validation of miR-122 inhibition, identical assays were repeated with the psiCHECK-Control vector to ascertain that the effect is specific to the miR-122 pathway, and not simply affecting the Renilla gene. In order to assess the relative degree of miR-122 inhibition, Huh7 cells were also co-transfected with either the psiCHECK-Control plasmid or the psiCHECK-miR122 plasmid (0.5 μg) and a miR-122 2′-OMe PS antagomir (50 pmol; 5′ […] (SEQ ID NO:4) 3′; IDT DNA)(2) using the X-tremGENE transfection reagent (Roche Applied Science, 4:2 reagent/DNA ratio). The transfection media was replaced with standard DMEM growth media after 4 hours and the cells were incubated for 48 hours prior to analysis with a Dual Luciferase Assay Kit (FIG. 3).

In series [2] the test system is hepatitis C virus (HCV) genotype 1a H77c RNA. Briefly: HCV replication in Huh7 cells (HCV RNA by quantitative RT PCR). In kind it is cell-based. The note with it: Huh7, 10 μM (antagomir transfected), 48 hours. How it is done:
Aberrantly regulated miR-122 is involved in the development of heptocellular carcinoma (HCC). miR-122 is a cellular component required by hepatitis C virus (HCV) for viral replication. […] Due to the efficient down-regulation of miRNA-122 by the small molecule inhibitors 1 and 2, both compounds were tested for their ability to inhibit HCV replication in Huh7 cells. The pHtat2Neo/QR/KR/FV/SI plasmid (provided by Dr. Stanley Lemon of University of Texas Medical Branch (UTMB)) was used to generate genotype 1a H77c RNA, which was subsequently transfected into Huh7 cells.^16 The cells were then either transfected with a miR-122 antagomir (positive control), or treated with compounds 1 and 2 (10 μM), or DMSO (negative control). After 48 hours, total RNA was isolated and HCV RNA levels were measured by quantitative RT PCR (FIG. 7). In agreement with previous reports, the antagomir reduced HCV RNA levels to 20%.^6 Moreover, the small molecule miR-122 inhibitors 1 and 2 elicited a reduction in viral load to 48% and 47%, respectively.
The pHtat2Neo/QR/KR/FV/SI plasmid (provided by Dr. Stanley Lemon)^16 was linearized using XbaI (10 units, 50 μL reaction; New England Biolabs), followed by transcription with T7 RNA Polymerase (6 h, 37° C.), and purification on Microcon 10 columns. Huh7 cells were then grown to 60% confluency in a 6 well plate and transfected with 1 μg RNA using X-tremGENE transfection reagent (Roche Applied Science, 3:2 reagent/RNA ratio) in Opti-Mem media (Invitrogen). After a 4 hour incubation at 37° C., the transfection media was removed and replaced with standard growth media (2 mL) supplemented with 10 μM of 1 or 2 (1% DMSO final concentration). All experiments were conducted in triplicate for statistical validation. […] Quantitative RT-PCR was then performed as previously described using the general HCV RT-PCR Primers (5′: […] 3′ (SEQ ID NO:7) and 5′ […] 3′) (SEQ ID NO:8) and GADPH primers (5′ […] 3′ (SEQ ID NO:9) and 5′ […] 3′) (SEQ ID NO:10) as a standard control.

In the oligonucleotide strings, read from the 5' end, every base follows the letter of its sugar. An asterisk marks phosphorothioate; unmarked linkages are phosphodiester. Other units and linkages are bracketed, terminal groups are in braces. A string of capitals states the bases alone. m = 2'-O-methyl

Turning to `O=S(=O)(Nc1ccccc1)c1ccc2c(c1)CCCN2` [2c, N-Phenyl-1,2,3,4-tetrahydroquinoline-6-sulfonamide], the “miR-122 inhibitory activity (structure-activity, in words)” value (from here on “miR-122 inhibitory activity”) in the series with miR-122 is on record as “Activity was maintained”. Moreover, in the series with miR-122 (Huh7, psiCHECK-miR122, 10 μM, mean ± SD of three independent assays), the “relative luciferase units (RLU) normalized to a DMSO control” value stood at 9.9±3.1 RLU.
`O=C(NCc1ccc2ccccc2c1)c1ccc(Cl)cc1Cl` [1m]: the “miR-122 inhibitory activity” value in the series with miR-122 is “substantial loss of activity”.
For “antagomir: miR-122 2′-OMe PS antagomir, 5′ ACAAACACCAUUGUCACACUCCA 3′ (SEQ ID NO:4), positive control (mA*mC*mA*mA*mA*mC*mA*mC*mC*mA*mU*mU*mG*mU*mC*mA*mC*mA*mC*mU*mC*mC*mA) [reference compound]”, in series [1], the “normalized Renilla luciferase signal with psiCHECK-control vector” value is on record as “no statistically significant alteration”. Further, in the series with miR-122 (Huh7, 10 μM (antagomir transfected), normalized to DMSO), the “Renilla luciferase expression with psiCHECK-miR122 (in words)” value is “significant increase”. Further, the “HCV RNA levels / viral load reduced to” value in series [2] is listed as 20%.
Consider `O=C(NCc1ccc2ccccc2c1)c1ccc(Cl)cc1Cl` [1e], for which the “miR-122 inhibitory activity” value with miR-122 is “virtually complete loss of miR-122 inhibitory activity”.
Turning to `Nc1cc2c3c(cccc3c1)C(=O)N(Cc1ccc3ccccc3c1)C2=O` [3g, 5-amino-2-(naphthalen-2-ylmethyl)-1H-benzo[de] isoquinoline-1,3(2H)-dione], in the series with miR-122, the “miR-122 activation (structure-activity, in words)” value (from here on “miR-122 activation”) is given as “complete loss of miR-122 activation”.
For `Nc1ccc(NS(=O)(=O)c2ccc3c(c2)CCCN3)cc1` [2d, N-(4-Aminophenyl)-1,2,3,4-tetrahydroquinoline-6-sulfonamide], the “miR-122 inhibitory activity” value with miR-122 is “lost”.
Still for that read-out and setting: to `Nc1ccc(NC(=O)c2ccc(Cl)cc2Cl)cc1` [1h, N-(4-Aminophenyl)-2,4-dichlorobenzamide] belongs “complete loss of miR-122 inhibitory activity”.
As to `NCCN1C(=O)c2cccc3cc(N)cc(c23)C1=O` [3c, 5-Amino-2-(2-aminoethyl)-1H-benzo[de]isoquinoline-1,3(2H)-dione], the “miR-122 activation” value in the series with miR-122 is “increasing loss of activity”.
For `O=C(Nc1ccccc1)c1ccc(Cl)cc1Cl` [1g, 2,4-Dichloro-N-phenylbenzamide], the “miR-122 inhibitory activity” value in the series on miR-122 is recorded as “complete loss of miR-122 inhibitory activity”.
On the same count and under the same terms, to `O=C(NCc1ccc2ccccc2c1)c1ccc(Cl)cc1Cl` [1f] belongs “virtually complete loss of miR-122 inhibitory activity”.
For the molecule `CN(C)CCN1C(=O)c2cccc3cccc(c23)C1=O` [3a, 2-(2-(Dimethylamino)ethyl)-1H-benzo[de]isoquinoline-1,3(2H)-dione], the “miR-122 activation” value in the series on miR-122 is “retention of activity”.
As for `O=C(Nc1ccc(I)cc1)c1ccc(Cl)cc1Cl` [1i, 2,4-Dichloro-N-(4-iodophenyl)benzamide], the “miR-122 inhibitory activity” value in the series with miR-122 is reported as “complete loss of miR-122 inhibitory activity”.
Still for that read-out and setting: to `O=S(=O)(c1ccc2c(c1)CCCN2)N1CCCc2ccccc21` [2b, 6-(3,4-Dihydroquinolin-1(2H)-ylsulfonyl)-1,2,3,4-tetrahydroquinoline] belongs “loss of activity”.
